Assay results: article PMC9101764, “Synthesis and In Vitro Characterization of Selective Cannabinoid CB2 Receptor Agonists: Biological Evaluation against Neuroblastoma Cancer Cells” (Molecules, 2022)

How the values were obtained:
hCB2R [1] = target: T1, hCB2R (Homo sapiens, UniProt P34972); test: [3H]CP55,940 radioligand displacement assay, CHO cell membranes; type: binding
T1 construct: host or cells: HitHunter CHO-K1 cells
Procedure: (§1) CHO cells stably expressing hCB1R or hCB2R were maintained at 37 °C and 5% CO2 in Gibco Ham’s F-12 nutrient mix (Fisher Scientific, Loughborough, UK ) supplemented with 2 mM L-glutamine, 10% fetal bovine serum (FBS), 0.6% penicillin−streptomycin (Fisher Scientific, Loughborough UK), and the disulfate salt of geneticin (G418) as previously described (Sigma-Aldrich, Poole, UK). For subsequent radioligand displacement assays, membranes were prepared by scraping cells from flasks, centrifuging the cells, and storing the cell pellet at −20 °C. When required for us, cell pellets were defrosted and diluted in tris buffer (50 mM Tris-HCl and 50 mM Tris-base). As we have described in previous studies, HitHunter (cAMP) and PathHunter (βarrestin2) CHO-K1 cells stably expressing hCB1R or hCB2R from DiscoveRx® (Eurofins, Fremont, CA, USA) were maintained at 37 °C, 5% CO2 in F-12 DMEM containing 10% FBS and 1% Pen/Strep with 800 µg/mL geneticin (HitHunter) or 800 µg/mL G418 and 300 µg/mL hygromycin B (PathHunter).
(§2) We have previously described radioligand displacement assays in detail. […] Binding reactions were terminated by ice-cold tris binding buffer and subsequent vacuum filtration (24-well sampling manifold (Brandel cell harvester; Brandel Inc., Gaithersburg, MD, USA)) using Brandel GF/B filters soaked in wash buffer at 4 °C for at least 24 h. Filters were washed with 1.2 mL of tris-binding buffer six times, then oven-dried for 60 min before being incubated in 3 mL of scintillation fluid (Ultima Gold XR, PerkinElmer, Seer Green, Buckinghamshire, UK). Radioactivity was quantified by liquid scintillation spectrometry. All compounds were first prepared at 10 mM solutions in DMSO. The final vehicle concentration for assays was 0.1% DMSO. All assays were performed in duplicate.
(§3) Estimates of Ki, EC50, and Emax were determined using non-linear regression three-parameters (GraphPad, Prism, v. 9.0).

hCB1R = target: T2, hCB1R (Homo sapiens, UniProt P21554); test: as above; type: binding
T2 construct: expressed in transfected cells; host or cells: CHO cells (membranes)
T2 sequence (P21554 whole entry): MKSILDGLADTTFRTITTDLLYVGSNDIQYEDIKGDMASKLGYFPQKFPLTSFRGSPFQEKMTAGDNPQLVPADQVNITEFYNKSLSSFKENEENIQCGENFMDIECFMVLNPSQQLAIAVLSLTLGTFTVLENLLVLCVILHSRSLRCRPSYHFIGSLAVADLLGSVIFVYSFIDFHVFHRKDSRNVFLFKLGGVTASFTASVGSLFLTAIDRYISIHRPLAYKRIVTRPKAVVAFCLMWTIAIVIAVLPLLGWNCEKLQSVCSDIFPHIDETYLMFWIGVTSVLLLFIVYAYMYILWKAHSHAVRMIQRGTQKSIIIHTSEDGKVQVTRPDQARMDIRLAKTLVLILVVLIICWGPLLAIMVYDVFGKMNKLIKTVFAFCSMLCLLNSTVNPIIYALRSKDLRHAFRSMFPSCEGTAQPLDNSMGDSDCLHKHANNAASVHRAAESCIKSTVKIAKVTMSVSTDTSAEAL
Procedure: as §1, §2, §3

hCB2R [2] = target: T1, hCB2R; test: HitHunter cAMP assay: inhibition of FSK-stimulated cAMP accumulation in CHO cells; type: cell-based
Procedure: For the cAMP inhibition assay, cells were treated with 10 μM FSK and synthetized compounds for 90 min to assess compound concentration-dependent activity.
as §1
The quantification of FSK-stimulated cAMP accumulation using the DiscoveRx HitHunter assay (DiscoveRx, Eurofins, Fremont, CA, USA) has been described in detail previously elsewhere. Briefly, 20,000 cells/well were plated in low-volume 96-well plates and incubated overnight in Opti-MEM with 1% FBS at 37 °C and 5% CO2. The next day, the media were replaced with cell assay buffer (DiscoveRx). Immediately after this, the cells were simultaneously treated with 10 µM FSK and ligands for 90 min. Subsequent additions of cAMP antibody solution and cAMP working detection solutions followed the manufacturer’s directions (DiscoveRx) and cells were stored for 60 min at room temperature. cAMP solution A (DiscoveRx) was added according to the manufacturer’s directions followed by another 60 min room temperature incubation prior to chemiluminescence being measured on a Cytation5 plate reader (top read, gain 200, integration time 10,000 ms).
as §3
Data are fitted to a non−linear regression (three parameter model, GraphPad v. 9.0). Data are mean ± S.E.M. of 6 independent experiments performed in triplicate.

SH-SY5Y cells = test: Sulforhodamine B (SRB) cell viability assay; type: cell-based, human
Procedure: We tested the anti-proliferative activity of the novel CB2R agonists FG158a, FG160a, FG161a, and LV62 in neuroblastoma cell lines (Figure 4). The compounds were assayed as a mixture of cis and trans isomers. […] After 72 h of treatment, the effect was higher and could also be observed at lower concentrations. The inhibitory effect was confirmed in another neuroblastoma cell line, SK-N-BE cells.
Human neuroblastoma SHSY5Y and SK-N-BE cell lines were grown in DMEM (GIBCO, Paisley, UK) and MEM (Sigma-Aldrich, St.Louis, MO, USA), respectively, supplemented with 2 mM l-glutamine, […], 50 units/mL penicillin and 10% heat-inactivated fetal bovine serum (FBS) in a humidified atmosphere (5% CO2 at 37 °C). Cells were detached as previously described with 0.25% trypsin (Sigma-Aldrich) at 70–80% confluence.
Cells seeded for 24 h in triplicate in 96-well plates at a density of 8000 cells/well were left to adhere overnight. CB2R agonists were added to the culture in triplicate at concentrations ranging from 2.5–40 µM. After 24 h, 48 h, and 72 h, cells were fixed, shaking for 2 h at 4 °C with 50% v/v trichloroacetic acid and washed with distilled water. Cells left overnight to dry were stained with 0.4% w/v SRB in 1% v/v acetic acid (at room temperature for 30 min on a shaker) and then washed with 1% acetic acid to allow for the removal of the unbound dye. TRIS-HCl 10 mM, pH 7.4 was added to the cells and absorbance was measured at 495 nm as previously shown using a Glomax® Discover Microplate Reader (Promega, Madison, WI, USA). In combinatory assays, similar procedures were adopted and the CB2R antagonist SR144528 (1 µM) was added 1 h before the CB2 agonists (10, 20 and 40 µM) to SHSY5Y cells that were harvested as described above after 72 h of incubation.
Figure 4 Inhibition of cell viability. The effect on cell viability by CB2R agonists was determined by sulforhodamine B (SRB) assays in SH-SY5Y and SK-N-BE cell lines. SH-SY5Y cells were treated with the compounds indicated in the figure for 24 h (A), 48 h (B), and 72 h (C) at the concentrations reported in the histograms. SK-N-BE cells were treated with the same compounds for 72 h (D). Figures report cell viability (mean of at least 3 independent experiments ± SEM) as percent of cell survival vs. untreated cells (considered as 100% of survival). […] The statistical significance was calculated with two-way ANOVA using Dunnett’s multiple comparisons test.

[3] = CHO membranes, 0.1 nM-10 μM compounds

T1 sequence (P34972 whole entry): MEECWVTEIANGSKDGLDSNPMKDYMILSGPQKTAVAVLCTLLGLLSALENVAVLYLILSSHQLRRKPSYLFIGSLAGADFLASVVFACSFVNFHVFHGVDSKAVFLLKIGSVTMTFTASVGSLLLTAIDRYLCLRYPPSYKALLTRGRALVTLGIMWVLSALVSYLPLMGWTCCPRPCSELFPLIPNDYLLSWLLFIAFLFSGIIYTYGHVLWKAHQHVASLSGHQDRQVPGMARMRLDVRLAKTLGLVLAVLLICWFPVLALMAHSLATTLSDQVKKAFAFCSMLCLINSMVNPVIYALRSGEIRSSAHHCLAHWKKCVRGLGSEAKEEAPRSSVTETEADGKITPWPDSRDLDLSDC

CC1CCC(NC(=O)c2cc3cccnc3n(CCCCCBr)c2=O)CC1 (stereo not drawn) [FG158a, 1-(5-bromopentyl)-N-(4-methylcyclohexyl)-2-oxo-1,2-dihydro-1,8-naphthyridine-3-carboxamide]
Ki (hCB2R [1]): 0.021 µM
displacement of [3H]CP55,940 at hCB2R (hCB2R [1]; [3]): fully displaced [^3H]CP55,940
Ki (hCB1R): > 10 µM
displacement of [3H]CP55,940 at hCB1R (hCB1R; [3]): not able to displace [^3H]CP55,940
EC50 (hCB2R [2]): > 10 µM
modulation of cAMP response (hCB2R [2]; CHO cells expressing hCB2R, 10 μM FSK, 90 min): not to affect this signaling pathway
effect on cell viability (SH-SY5Y cells; 24 h, 48 h and 72 h, 2.5–40 µM): inhibited cell viability
IC50 (SH-SY5Y cells; Homo sapiens, 72 h of treatment, SRB, cis/trans mixture): 11.8 µM
melting point: 121 to 123 °C
